According to paper PMC7394379, “Structure-guided screening strategy combining surface plasmon resonance with nuclear magnetic resonance for identification of small-molecule Argonaute 2 inhibitors” (PLoS ONE, 2020):
Where two headings read alike, the source gives them in different places.

How the values were obtained:
[1] = biological target: T1, AGO2 MID domain (Homo sapiens, UniProt Q9UKV8); test: SPR inhibition, immobilised biotin-PEG-UMP versus AGO2 MID domain; format: binding
T1 construct: MID domain Gln432-Leu578 (147 residues); pE-SUMOpro-3 His-SUMO fusion, tag removed by SUMO protease 2; E. coli BL21(DE3); 15N-labelled for NMR

[2] = biological target: T1, AGO2 MID domain; test: as above; format: binding; details: HBS-EP+ pH 7.4, 2 mM DTT, 5% DMSO; competition at the 5'-terminal nucleotide site
[3] = biological target: T1, AGO2 MID domain; test: as above; format: binding; details: read-out: % inhibition at 500 μmol/L
[4] = biological target: T1, AGO2 MID domain; test: 1H-15N HSQC NMR chemical shift perturbation; details: 20 °C, pH 6.70, 25 mM sodium phosphate, 150 mM NaCl, 2 mM TCEP; two binding sites suggested, one overlapping AMP
[5] = HBS-EP+ pH 7.4, 2 mM DTT, 5% DMSO, competition at the 5'-terminal nucleotide site

SMILES	IC50 [1, 5]	IC30 [2]	other results
Nc1ncnc2c1ncn2[C@@H]1O[C@H](COP(=O)(O)O)[C@@H](O)[C@H]1O [AMP]	–	–	IC50 ([1]; read-out: IC50): ~200 µM
O=c1ccn([C@@H]2O[C@H](COP(=O)(O)O)[C@@H](O)[C@H]2O)c(=O)[nH]1 [UMP]	AMP and UMP showed a stronger inhibition than CMP and GMP	–	–
Nc1ccn([C@@H]2O[C@H](COP(=O)(O)O)[C@@H](O)[C@H]2O)c(=O)n1 [CMP]	AMP and UMP showed a stronger inhibition than CMP and GMP	–	–
COc1cc(C=C2SC(=S)N(C(CCC(=O)O)C(=O)O)C2=O)cc(Cl)c1O (stereo not drawn) [UZI/1999527]	–	Three of the hit compounds showed stronger inhibition than BCI-137 in the SPR analysis	–
Nc1nc2c(ncn2[C@@H]2O[C@H](COP(=O)(O)O)[C@@H](O)[C@H]2O)c(=O)[nH]1 [GMP]	AMP and UMP showed a stronger inhibition than CMP and GMP	–	–
Nc1ncnc2c1ncn2[C@@H]1O[C@H](CO)[C@@H](O)[C@H]1O [adenosine]	–	–	inhibition at 500 µM [3]: < 10%
COc1ccc(-c2nn(CCC(=O)O)cc2C=C2SC(=S)NC2=O)cc1 [Z56862757]	–	Three of the hit compounds showed stronger inhibition than BCI-137 in the SPR analysis	1H-15N HSQC NMR chemical shift perturbation [4]: NMR analysis suggests two Z56862757 binding sites, only one site could overlap with AMP
Cc1cccc(C(Nc2ccc3c(c2)OC(F)(F)O3)P(=O)(O)O)c1 (stereo not drawn) [Z317095268]	–	Three of the hit compounds showed stronger inhibition than BCI-137 in the SPR analysis	–
